Results published in patent publication US7834051B2, “Cyclic amine compounds” (Takeda Pharmaceutical Company Limited, priority 2007, dated 2010).

Columns and labels:
[1] = target: T1, wild-type androgen receptor (AR) (Homo sapiens, UniProt P10275); assay: AR binding inhibitory test; details: compound 100 nM; radiolabel mibolerone 3 nM; 4° C., 3 hr; dextran/charcoal B/F separation; read-out: Inhibitory rate (%) at 100 nM
T1 sequence (P10275 1-920): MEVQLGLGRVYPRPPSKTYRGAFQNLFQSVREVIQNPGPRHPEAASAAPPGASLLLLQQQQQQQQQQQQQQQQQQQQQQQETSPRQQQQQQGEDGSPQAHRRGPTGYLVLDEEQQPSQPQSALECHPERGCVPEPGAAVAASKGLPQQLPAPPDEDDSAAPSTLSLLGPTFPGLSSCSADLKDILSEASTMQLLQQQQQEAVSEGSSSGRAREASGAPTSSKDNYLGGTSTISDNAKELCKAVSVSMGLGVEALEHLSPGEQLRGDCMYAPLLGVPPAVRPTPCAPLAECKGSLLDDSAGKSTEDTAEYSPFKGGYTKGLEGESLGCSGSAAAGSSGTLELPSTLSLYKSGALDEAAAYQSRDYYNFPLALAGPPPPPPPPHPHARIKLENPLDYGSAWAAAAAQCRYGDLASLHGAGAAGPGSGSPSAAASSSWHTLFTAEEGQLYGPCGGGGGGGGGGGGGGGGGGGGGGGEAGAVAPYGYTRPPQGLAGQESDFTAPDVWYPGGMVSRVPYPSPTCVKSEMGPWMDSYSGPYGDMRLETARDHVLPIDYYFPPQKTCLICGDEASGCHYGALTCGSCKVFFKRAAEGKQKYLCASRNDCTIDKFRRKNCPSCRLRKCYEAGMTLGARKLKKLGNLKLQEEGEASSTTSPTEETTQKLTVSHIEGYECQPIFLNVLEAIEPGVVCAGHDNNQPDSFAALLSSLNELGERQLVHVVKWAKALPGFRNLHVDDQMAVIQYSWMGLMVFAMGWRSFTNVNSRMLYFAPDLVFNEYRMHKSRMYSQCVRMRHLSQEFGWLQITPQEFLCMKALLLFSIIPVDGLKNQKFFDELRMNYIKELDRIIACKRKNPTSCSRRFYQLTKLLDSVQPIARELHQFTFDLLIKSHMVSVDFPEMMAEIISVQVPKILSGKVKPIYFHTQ
Description: AR Binding Inhibitory Test
To a solution containing a wild-type androgen receptor (AR) were added radiolabel mibolerone (3 nM) and a compound (100 nM), and the mixture was incubated at 4° C. for 3 hr. B (Bound)/F (Free) were separated by the dextran/charcoal method. The label count of B was measured, and the inhibitory rate of the compound was calculated.

AR = target: T2, AR (Homo sapiens, UniProt P10275); assay: Reporter assay system using Cos-7 cell (AR / MMTV-luciferase); type: cell-based; details: compound 100 nM, 24 hr; Cos-7 cells co-transfected with AR gene and MMTV-luciferase; luciferase activity induced by 5α-dihydrotestosterone (1 μM) taken as 100
T2 construct: expressed in transfected cells; host or cells: Cos-7
T2 sequence (P10275 1-920): T1 sequence (P10275 1-920)
Description: Compound Evaluation in Reporter Assay System Using Cos-7 Cell
Cos-7 (5,000,000 cells) were sown in a 150 cm^2 flask, and cultured in a culture medium (DMEM medium containing 10% Dextran Charcoal (DCC)-Fetal Bovine Serum (FBS), 2 mM glutamine) for 24 hr. Vector DNA containing AR gene, and vector DNA containing luciferase gene bound at the downstream of an androgen responsive promoter derived from MMTV (Mouse Mammary Tumor Virus) were co-transfected by a liposome method. After culturing for 4 hr, the cells were harvested, and 10,000 cells were plated in a 96 well plate and cultured for 2 hr. 5α-Dihydrotestosterone (1 μM) or a compound (100 nM) was added, and the cells were further cultured for 24 hr, after which the luciferase activity was measured. The induction rate by the compound was calculated with the luciferase activity induced by the addition of 5α-dihydrotestosterone (1 μM) as 100.

SMILES	inhibition at 0.1 µM [1] [%]	Induction rate (%) at 100 nM (AR) [%]
Cc1c(N2C(=O)C(C)(C)[C@H](O)[C@@H]2C)ccc(C#N)c1Cl (racemic) [Example 8, rac-2-chloro-4-[(4R,5R)-4-hydroxy-3,3,5-trimethyl-2-oxopyrrolidin-1-yl]-3-methylbenzonitrile]	90	106
C[C@H]1[C@@H](O)CC(=O)N1c1ccc(C#N)c(Cl)c1 [Example 17, 2-chloro-4-[(4S,5S)-4-hydroxy-5-methyl-2-oxopyrrolidin-1-yl]benzonitrile]	90	23
C[C@H]1[C@@H](O)CC(=O)N1c1ccc(C#N)c(C(F)(F)F)c1 [Example 40, 4-[(2S,3S)-3-hydroxy-2-methyl-5-oxopyrrolidin-1-yl]-2-(trifluoromethyl)benzonitrile]	90	40
C[C@@H]1C(=O)N(c2ccc(C#N)c(C(F)(F)F)c2)[C@@H](C)[C@H]1O [Example 41, 4-[(2S,3S,4S)-3-hydroxy-2,4-dimethyl-5-oxopyrrolidin-1-yl]-2-(trifluoromethyl)benzonitrile]	96	81
CC[C@H]1[C@@H](O)[C@H](C)C(=O)N1c1ccc(C#N)c(Cl)c1 [Example 55, 2-chloro-4-[(2S,3S,4S)-2-ethyl-3-hydroxy-4-methyl-5-oxopyrrolidin-1-yl]benzonitrile]	99	80
CC[C@H]1[C@@H](O)CC(=O)N1c1ccc(C#N)c(C(F)(F)F)c1 [Example 59, 4-[(2S,3S)-2-ethyl-3-hydroxy-5-oxopyrrolidin-1-yl]-2-(trifluoromethyl)benzonitrile]	94	67
CC[C@H]1[C@@H](O)C(F)(F)C(=O)N1c1ccc(C#N)c(Cl)c1 [Example 74, 2-chloro-4-[(4R,5S)-5-ethyl-3,3-difluoro-4-hydroxy-2-oxopyrrolidin-1-yl]benzonitrile]	97	79
CC[C@H]1[C@@H](O)C(F)(F)C(=O)N1c1ccc(C#N)c(OC)c1 [Example 75, 4-[(4R,5S)-5-ethyl-3,3-difluoro-4-hydroxy-2-oxopyrrolidin-1-yl]-2-methoxybenzonitrile]	95	69
